Measured values reported in the supplement of paper PMC10307832.

Experiments:
Assay in all cases: relative viability (nuclei count vs DMSO), 5 days (fraction); higher = more cells survive
[1] = compound: C#Cc1cccc(Nc2ncnc3cc(OCCOC)c(OCCOC)cc23)c1 [Erlotinib] + Nc1ncn([C@H]2C[C@H](O)[C@@H](CO)O2)c(=O)n1 [Decitabine] (partner 2 µM)
Summary of the method: (§1)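 For relative viability, nuclei counts in treated wells were divided by those in vehicle wells. Lung cancer cell lines had been pin-tool dosed in 1536-well plates the day after seeding and cultured for 5 days, then fixed and stained in one step (final 0.05% Triton X-100, 1% formaldehyde, 1 ug/ml Hoechst) and imaged at 4×. Doses were one drug alone or a fixed anchor-drug dose plus five library-drug doses (not always all listed) in √10 steps, and values are duplicate-plate medians.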

[2] = compound: O=C(Nc1c[nH]nc1-c1nc2ccc(CN3CCOCC3)cc2[nH]1)NC1CC1 [AT9283] + CC1(C)CCC(c2ccc(Cl)cc2)=C(CN2CCN(c3ccc(C(=O)NS(=O)(=O)c4ccc(N[C@H](CCN5CCOCC5)CSc5ccccc5)c(S(=O)(=O)C(F)(F)F)c4)cc3)CC2)C1 [Navitoclax] (partner 0.5 µM)
Summary of the method: as §1

[3] = compound: O=C(Nc1c[nH]nc1-c1nc2ccc(CN3CCOCC3)cc2[nH]1)NC1CC1 [AT9283] + CS(=O)(=O)N1CCN(Cc2cc3nc(-c4cccc5[nH]ncc45)nc(N4CCOCC4)c3s2)CC1 [Pictilisib] (partner 1 µM)
Summary of the method: as §1

[4] = compound: O=C(Nc1c[nH]nc1-c1nc2ccc(CN3CCOCC3)cc2[nH]1)NC1CC1 [AT9283] + NC(=O)Nc1cc(-c2cccc(F)c2)sc1C(=O)N[C@H]1CCCNC1 [AZD7762] (partner 0.2 µM)
Summary of the method: as §1

[5] = compound: O=C(Nc1c[nH]nc1-c1nc2ccc(CN3CCOCC3)cc2[nH]1)NC1CC1 [AT9283] + O=C(CCCCCCC(=O)Nc1ccccc1)NO [Vorinostat] (partner 1 µM)
Summary of the method: as §1

Cell Line	relative viability ([1]; first compound 0.02 µM)	relative viability ([1]; first compound 0.2 µM)	relative viability ([1]; first compound 0.6325 µM)	relative viability ([1]; first compound 2 µM)	relative viability ([2]; first compound 0.003 µM)	relative viability ([2]; first compound 0.03 µM)	relative viability ([2]; first compound 0.09487 µM)	relative viability ([2]; first compound 0.3 µM)	relative viability ([3]; first compound 0.003 µM)	relative viability ([3]; first compound 0.03 µM)	relative viability ([3]; first compound 0.09487 µM)	relative viability ([3]; first compound 0.3 µM)	relative viability ([4]; first compound 0.003 µM)	relative viability ([4]; first compound 0.03 µM)	relative viability ([4]; first compound 0.09487 µM)	relative viability ([4]; first compound 0.3 µM)	relative viability ([5]; first compound 0.003 µM)	relative viability ([5]; first compound 0.03 µM)	relative viability ([5]; first compound 0.09487 µM)	relative viability ([5]; first compound 0.3 µM)
NCI-H2347	0.633	0.642	0.589	0.576	0.93	0.764	0.368	0.267	0.726	1.23	0.568	0.385	0.781	0.676	0.324	0.341	0.826	0.566	0.357	0.288
NCI-H3122	0.533	0.402	0.443	0.386	1.01	0.902	0.359	0.298	0.602	0.41	0.271	0.217	0.958	0.917	0.363	0.17	0.851	0.978	0.598	0.138
HARA	0.69	0.49	0.374	0.353	1.1	0.129	0.0715	0.101	0.373	0.425	0.0788	0.0662	0.315	0.232	0.0942	0.158	0.365	0.453	0.122	0.0962
HCC-78	0.728	0.743	0.705	0.584	0.721	0.511	0.169	0.145	0.211	0.218	0.123	0.151	0.593	0.44	0.353	0.234	0.384	0.385	0.258	0.229
HCC-366	0.353	0.324	0.335	0.264	1.1	0.842	0.191	0.0248	0.145	0.152	0.0339	0.0503	0.209	0.485	0.0684	0.0719	0.292	0.2	0.0353	0.0463
PC-14	0.194	0.142	0.151	0.145	1.12	1.01	0.37	0.078	0.534	0.657	0.0566	0.0616	0.341	0.371	0.206	0.0832	0.79	0.17	0.107	0.114
LK-2	0.294	0.291	0.346	0.262	0.803	0.493	0.169	0.168	0.602	0.22	0.219	0.248	0.344	0.109	0.0946	0.0986	0.282	0.185	0.146	0.138
NCI-H358	0.216	0.183	0.179	0.167	–	–	–	–	0.278	0.171	0.141	0.132	0.431	0.178	0.186	0.175	0.54	0.119	0.0833	0.0819
UMC-11	0.652	0.597	0.636	0.567	0.309	0.113	0.118	0.128	0.805	0.114	0.111	0.191	–	–	–	–	0.359	0.109	0.117	0.124
LCLC-97TM1	0.224	0.254	0.234	0.256	0.335	0.117	0.107	0.144	0.171	0.141	0.0991	0.114	0.305	0.102	0.0858	0.0762	0.734	0.15	0.128	0.0905
HOP-62	0.232	0.221	0.187	0.241	1.07	0.857	0.088	0.106	0.645	0.351	0.19	0.146	0.561	0.143	0.161	0.199	0.637	0.262	0.183	0.186
NCI-H1703	–	–	–	–	1.36	0.19	0.216	0.176	0.234	0.216	0.205	0.196	0.12	0.108	0.0955	0.106	–	–	–	–
NCI-H520	0.593	0.504	0.519	0.564	1.17	0.34	0.236	0.23	0.259	0.247	0.216	0.171	–	–	–	–	0.56	0.271	0.223	0.235
NCI-H2126	0.569	0.537	0.437	0.493	0.871	0.892	0.634	0.319	0.48	0.493	0.375	0.26	0.979	1.05	0.969	0.339	0.729	0.552	0.486	0.249
NCI-H2087	0.286	0.238	0.282	0.208	0.985	0.713	0.273	0.186	0.677	0.413	0.21	0.208	1.35	0.686	0.348	0.244	1.01	0.158	0.179	0.126
Calu-6	–	–	–	–	0.794	0.113	0.134	0.102	0.932	0.242	0.227	0.194	–	–	–	–	–	–	–	–
NCI-H2023	0.247	0.222	0.251	0.24	1.04	0.71	0.383	0.119	0.216	0.106	0.0878	0.111	–	–	–	–	0.527	0.344	0.149	0.144
